Laboratory results: US9714247B2, “Multiple kinase pathway inhibitors” (Mannkind Corporation, priority 2012, dated 2017)
Like-named read-outs stand apart in the source and are kept apart here.

What was measured:
RBL-2H3 cells = test: Degranulation (β-hexosaminidase release) colorimetric assay; type: cell-based; conditions: Rattus norvegicus, RBL-2H3, IgE / DNP-BSA
Excerpt: Crosslinking of IgE receptors leads to induction of intracellular signal transduction pathways and degranulation of mast cells and basophils leading to the release of histamine, serotonin and cytokines that constitutes an allergic reaction. […] One of the factors secreted on induction of degranulation is β-hexosaminidase. A colorimetric assay using 4-nitrophenyl N-acetyl-3-D-glucosaminide (Sigma-Aldrich) as a substrate was used to estimate the amount of enzyme secreted upon degranulation. In brief, RBL-2H3 (ATCC # CRL 2256) cells were plated overnight in the presence of IgE (monoclonal anti-dinitrophenyl antibody from Sigma-Aldrich). The next day, cells were treated with compounds in cell culture media, washed and treated with DNP-BSA for 1 hour (Sigma-Aldrich) in Tyrodes's buffer to induce degranulation. The level of 3-hexosaminidase was analyzed in cell-free supernates and cell lysates and the amount of β-hexosaminidase released was calculated. EC50 values were generated using varying concentrations of inhibitors. […] Thus amino naphthyridinones can be used to inhibit immunologic functions such as degranulation.

DoHH2 [1] = test: CellTiter-Glo proliferation/viability assay; type: cell-based, human
[2] = system: PLCγ2 phosphorylation in Ramos cells; test: PLCγ2 phosphorylation by flow cytometry; type: cell-based, human; conditions: Homo sapiens, flow cytometry; for inhibition at 0.3 µM: anti-phospho PLCγ2 (Tyr759), read-out: pPLCγ % inhibition
Method in brief: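 Ramos cells starved 18 h in 1% FBS, pretreated with inhibitor 2 h, then stimulated with anti-IgM (10 ug/ml final) plus 3.3 mM H2O2 for 2 min, then cross-linking F(ab) (10 ug/ml) plus H2O2 for 8 min. Fixed, permeabilized cells stained with PE anti-phospho-PLCγ2 (Tyr1217 or Tyr759), dead cells gated out; ED50 from geometric mean fluorescence over four inhibitor concentrations.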

[3] = system: phosphorylation of SFKs in Ramos cells; test: SFK phosphorylation (Tyr 416) by flow cytometry; type: cell-based, human; conditions: Homo sapiens, 0.3 uM, flow cytometry, SFK phosphorylated at Tyr 416, read-out: pSRC % inhibition
Experimental: Ramos cell lysates from stimulated and unstimulated cells were analyzed for the levels of phosphorylated SRC family members. As described in Example 82 (above), cells were pretreated for 2 hours with an amino naphthyridinones and then stimulated with anti-IgM antibody and H2O2, protein lysates were prepared, quantified and used for Western blotting. A commercially available antibody that detects Src phosphorylated at Tyr 416 (Cell Signalling) and may cross-react with other Src family members such as Lyn, Fyn, Lck, Yes and Hck when phosphorylated at equivalent sites was used for Western blot analysis. The molecular weights of SFK family members are quite similar (in the 55-60 kDa range) and different family members cannot be resolved by the conditions used for the Western blot. […] The procedure can be similarly adapted for flow cytometric analysis as with the PLC-γ2 assay in Example 82. Ramos cells were incubated with Compound 1 for 2 hrs in RPMI media with 5% FBS prior to stimulation stimulated with H2O2/anti-IgM/F(Ab) for 10 minutes. Cells were evaluated by FACS analysis using anti-pSRC antibody and FITC-conjugated goat anti-rabbit secondary antibody following overnight storage at 4° C. in BD perm/wash buffer.
Ramos cells were prepared for flow cytometry analysis as described in example 82, and stained with a commercially available antibody that detects SFK phosphorylated at Tyr 416, followed by Alexa Fluor 488 conjugated secondary antibody. […] Thus amino naphthyridinones are useful in the inhibition of the phosphorylation of SFKs.

Src [4] = molecular target: T1, Src (Homo sapiens (Human), UniProt P12931); conditions: read-out: Src IC50
Ramos = test: CellTiter-Glo proliferation/viability assay; type: cell-based, human; conditions: read-out: Ramos EC50
BTK = BTK (Homo sapiens (Human), UniProt Q06187)
Lyn [5] = molecular target: T2, Lyn (Homo sapiens (Human), UniProt P07948); conditions: read-out: Lyn IC50
Lyn [6] = molecular target: T2, Lyn; test: biochemical
Src [7] = molecular target: T1, Src; test: biochemical
DoHH2 [8] = test: Apoptosis by flow cytometry (Annexin V / 7AAD); type: cell-based, human; conditions: Table 6; for Percent Apoptosis at 2 uM: DOHH2, 2 uM; for Percent Apoptosis at 5 uM: DOHH2, 5 uM
Excerpt: Activation of Tec family kinases including BTK, and/or Src kinase family members, regulates cell survival and cell death in normal B cells, lymphomas, and solid tumors. Apoptosis is a programmed cell death characterized by specific changes in cell morphology. […] Staurosporine was used as a positive control for apoptosis. […] Table 6 illustrates that several amino naphthyridinones induce significant apoptosis in DoHH2 cells.

DoHH2 cells = conditions: treated 24 hours
[9] = Homo sapiens, DOHH-2, 48 hrs, read-out: DoHH2 EC50
[10] = Homo sapiens, DOHH-2, Table 4, DoHH2 cells, read-out: EC50 (Proliferation)

T1 sequence (P12931 whole entry, looked up): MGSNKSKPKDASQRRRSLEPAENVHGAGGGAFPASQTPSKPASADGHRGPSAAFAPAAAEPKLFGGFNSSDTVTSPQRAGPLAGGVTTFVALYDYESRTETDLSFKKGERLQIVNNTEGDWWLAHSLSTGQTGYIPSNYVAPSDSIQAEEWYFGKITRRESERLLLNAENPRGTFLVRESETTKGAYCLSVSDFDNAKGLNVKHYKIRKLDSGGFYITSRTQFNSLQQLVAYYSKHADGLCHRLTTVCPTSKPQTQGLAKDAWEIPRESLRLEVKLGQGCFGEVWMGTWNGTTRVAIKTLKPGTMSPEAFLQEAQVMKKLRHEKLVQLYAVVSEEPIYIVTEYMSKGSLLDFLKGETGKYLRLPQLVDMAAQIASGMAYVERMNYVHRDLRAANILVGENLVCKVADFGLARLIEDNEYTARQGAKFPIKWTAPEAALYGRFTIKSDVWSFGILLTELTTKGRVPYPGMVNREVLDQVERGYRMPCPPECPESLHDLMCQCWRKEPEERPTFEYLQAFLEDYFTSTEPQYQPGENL
Sequence of BTK (Q06187 whole entry): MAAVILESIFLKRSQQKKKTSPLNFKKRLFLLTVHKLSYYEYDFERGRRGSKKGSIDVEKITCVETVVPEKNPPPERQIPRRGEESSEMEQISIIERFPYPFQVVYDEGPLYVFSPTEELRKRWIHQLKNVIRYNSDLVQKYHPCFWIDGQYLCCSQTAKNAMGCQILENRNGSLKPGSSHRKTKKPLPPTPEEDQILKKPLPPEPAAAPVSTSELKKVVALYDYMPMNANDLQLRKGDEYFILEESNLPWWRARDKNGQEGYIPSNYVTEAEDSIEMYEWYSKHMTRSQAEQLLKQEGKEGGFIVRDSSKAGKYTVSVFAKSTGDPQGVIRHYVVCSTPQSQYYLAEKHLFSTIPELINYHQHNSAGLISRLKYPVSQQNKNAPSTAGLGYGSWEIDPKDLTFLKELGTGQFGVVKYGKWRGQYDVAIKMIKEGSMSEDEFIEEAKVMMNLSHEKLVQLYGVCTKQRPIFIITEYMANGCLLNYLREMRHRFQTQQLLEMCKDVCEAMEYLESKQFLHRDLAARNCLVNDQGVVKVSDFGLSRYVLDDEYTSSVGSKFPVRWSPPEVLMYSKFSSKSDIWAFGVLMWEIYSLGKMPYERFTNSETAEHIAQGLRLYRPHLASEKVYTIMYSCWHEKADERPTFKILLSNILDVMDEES
T2 sequence (P07948 whole entry): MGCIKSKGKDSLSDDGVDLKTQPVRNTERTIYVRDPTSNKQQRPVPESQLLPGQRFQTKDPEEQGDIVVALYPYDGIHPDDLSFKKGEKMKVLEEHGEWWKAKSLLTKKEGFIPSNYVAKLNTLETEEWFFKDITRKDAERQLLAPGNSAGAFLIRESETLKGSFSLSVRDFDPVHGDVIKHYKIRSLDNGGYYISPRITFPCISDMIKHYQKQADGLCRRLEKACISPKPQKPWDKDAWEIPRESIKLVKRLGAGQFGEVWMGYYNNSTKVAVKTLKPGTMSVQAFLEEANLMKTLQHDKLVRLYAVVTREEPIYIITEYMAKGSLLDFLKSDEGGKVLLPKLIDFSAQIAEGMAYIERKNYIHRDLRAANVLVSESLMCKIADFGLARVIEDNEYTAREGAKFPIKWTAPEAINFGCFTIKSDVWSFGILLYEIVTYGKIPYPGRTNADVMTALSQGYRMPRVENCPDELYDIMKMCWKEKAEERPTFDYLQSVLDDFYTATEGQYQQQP

Compound | EC50 (RBL-2H3 cells) [µM] | IC50 (Src [4]) [µM] | EC50 (Ramos; Homo sapiens, Ramos, 48 h) [µM] | EC50 (Ramos; Homo sapiens, Ramos, 48 hrs) [µM] | IC50 (Lyn [6]; Lyn IC50) [µM] | IC50 (Src [7]) [µM] | IC50 (Lyn [6]) [µM] | IC50 (BTK) [µM] | EC50 (Ramos; 48 hrs) [µM] | EC50 ([2]; anti-phospho PLCγ2 (Tyr1217), four concentrations, read-out: Inhibition of phosphorylation of PLC-γ2 EC50) [µM] | EC50 (DoHH2 [1]; [9]) [µM] | inhibition at 0.3 µM [2] [%] | inhibition at 0.3 µM [3] [%] | IC50 (BTK; read-out: BTK IC50) [µM] | IC50 (Lyn [5]) [µM] | Percent Apoptosis at 2 uM (DoHH2 [8]) [%] | Percent Apoptosis at 5 uM (DoHH2 [8]) [%] | EC50 (DoHH2 [1]; [10]) [µM] | Effect on Cell Cycle (DoHH2 cells) | EC50 (DoHH2 [1]; 48 hrs, read-out: DoHH2 EC50) [µM]
CCn1c(=O)c(-c2c(F)cccc2F)cc2cnc(Nc3ccc(N(C)C4CCN(C)CC4)cn3)cc21 [Compound 95, 3-(2,6-difluorophenyl)-1-ethyl-7-((5-(methyl(1-methylpiperidin-4-yl)amino)pyridin-2-yl)amino)-1,6-naphthyridin-2(1H)-one] | 2.22 | < 0.1 | 1 to 10 | – | – | – | – | – | – | – | < 1 | 87 | 56 | < 0.1 | < 0.1 | – | – | – | – | –
CCN(CC)CCOc1ccc(Nc2cc3c(cn2)cc(-c2ccc(F)cc2C)c(=O)n3CC)nc1 [Compound 99, 7-((5-(2-(diethylamino)ethoxy)pyridin-2-yl)amino)-1-ethyl-3-(4-fluoro-2-methylphenyl)-1,6-naphthyridin-2(1H)-one] | 2.99 | < 0.1 | – | 1 to 10 | – | – | – | – | – | – | < 1 | 83 | 40 | < 0.1 | < 0.1 | – | – | – | – | –
COCCn1c(=O)c(-c2c(F)cccc2F)cc2cnc(Nc3ccc(N(C)C4CCN(C)CC4)cn3)cc21 [Compound 129, 3-(2,6-difluorophenyl)-1-(2-methoxyethyl)-7-((5-(methyl(1-methylpiperidin-4-yl)amino)pyridin-2-yl)amino)-1,6-naphthyridin-2(1H)-one] | > 5 | < 0.1 | – | 1 to 10 | – | – | – | – | – | – | < 1 | 88 | 66 | < 0.1 | < 0.1 | – | – | – | – | –
CN1CC[C@H](n2c(=O)c(-c3c(F)cccc3F)cc3cnc(Nc4ccc(F)cn4)cc32)C1 [Compound 150, (S)-3-(2,6-difluorophenyl)-7-((5-fluoropyridin-2-yl)amino)-1-(1-methylpyrrolidin-3-yl)-1,6-naphthyridin-2(1H)-one] | > 5 | – | > 10 | – | 0.1 to 1 | 0.1 to 1 | – | – | – | – | 1 to 10 | – | – | – | – | – | – | – | – | –
CC(C)n1c(=O)c(-c2c(F)cccc2F)cc2cnc(Nc3ccc(N(C)C4CCN(C)CC4)cn3)cc21 [Compound 137, 3-(2,6-difluorophenyl)-1-isopropyl-7-((5-(methyl(1-methylpiperidin-4-yl)amino)pyridin-2-yl)amino)-1,6-naphthyridin-2(1H)-one] | 1.14 | < 0.1 | 1 to 10 | – | – | – | – | – | – | – | < 1 | 98 | 81 | < 0.1 | < 0.1 | – | – | – | – | –
CCN(CC)CCOc1ccc(Nc2cc3c(cn2)cc(-c2ccccc2)c(=O)n3C2CCC2)nc1 [Compound 25, 1-cyclobutyl-7-(5-(2-(diethylamino)ethoxy)pyridin-2-ylamino)-3-phenyl-1,6-naphthyridin-2(1H)-one] | – | – | 1 to 10 | – | – | 1 to 5 | 1 to 5 | – | – | 0.28 | < 1 | 61 | 26 | – | – | 26.94 | 20.29 | < 1 | G1 Arrest | –
CCn1c(=O)c(-c2c(O)cccc2F)cc2cnc(Nc3ccc(N(C)C4CCN(C)CC4)cn3)cc21 [Compound 120, 1-ethyl-3-(2-fluoro-6-hydroxyphenyl)-7-((5-(methyl(1-methylpiperidin-4-yl)amino)pyridin-2-yl)amino)-1,6-naphthyridin-2(1H)-one] | 2.22 | < 0.1 | – | 1 to 10 | – | – | – | – | – | – | < 1 | 87 | 57 | < 0.1 | < 0.1 | – | – | – | – | –

Now from value to compound, other results behind:

EC50 (RBL-2H3 cells) [µM] | IC50 (Src [4]) [µM] | EC50 (Ramos; Homo sapiens, Ramos, 48 h) [µM] | EC50 (Ramos; Homo sapiens, Ramos, 48 hrs) [µM] | IC50 (Lyn [6]; Lyn IC50) [µM] | IC50 (Src [7]) [µM] | IC50 (Lyn [6]) [µM] | IC50 (BTK) [µM] | EC50 (Ramos; 48 hrs) [µM] | EC50 ([2]; anti-phospho PLCγ2 (Tyr1217), four concentrations, read-out: Inhibition of phosphorylation of PLC-γ2 EC50) [µM] | Compound | EC50 (DoHH2 [1]; [9]) [µM] | inhibition at 0.3 µM [2] [%] | inhibition at 0.3 µM [3] [%] | IC50 (BTK; read-out: BTK IC50) [µM] | IC50 (Lyn [5]) [µM] | Percent Apoptosis at 2 uM (DoHH2 [8]) [%] | Percent Apoptosis at 5 uM (DoHH2 [8]) [%] | EC50 (DoHH2 [1]; [10]) [µM] | Effect on Cell Cycle (DoHH2 cells) | EC50 (DoHH2 [1]; 48 hrs, read-out: DoHH2 EC50) [µM]
– | < 0.1 | – | 1 to 10 | – | – | 0.1 to 1 | 0.1 to 1 | – | – | CCN(CC)CCOc1ccc(Nc2cc3c(cn2)cc(-c2ccccc2)c(=O)n3C2CCN(C)CC2)nc1 [Compound 16, 7-((5-(2-(diethylamino)ethoxy)pyridin-2-yl)amino)-1-(1-methylpiperidin-4-yl)-3-phenyl-1,6-naphthyridin-2(1H)-one] | < 1 | 46 | -1 | 0.1 to 1 | 0.1 to 1 | 32.57 | 58.99 | < 1 | G1 Arrest | –
> 5 | < 0.1 | – | – | < 0.1 | – | – | – | 1 to 10 | – | O=c1c(-c2c(F)cccc2F)cc2cnc(Nc3ccc(F)cn3)cc2n1C1CCOC1 (single isomer, unassigned) [Compound 142, (R or S)-3-(2,6-difluorophenyl)-7-((5-fluoropyridin-2-yl)amino)-1-(tetrahydrofuran-3-yl)-1,6-naphthyridin-2(1H)-one] | – | – | – | – | – | – | – | – | – | < 1
> 5 | – | – | > 10 | – | – | – | 0.1 to 1 | – | – | CC(C)n1c(=O)c(-c2c(F)cccc2F)cc2cnc(Nc3ccc(F)cn3)cc21 [Compound 78, 3-(2,6-difluorophenyl)-7-((5-fluoropyridin-2-yl)amino)-1-isopropyl-1,6-naphthyridin-2(1H)-one] | < 1 | 55 | 8 | – | – | – | – | – | – | –
> 5 | – | > 10 | – | 0.1 to 1 | 0.1 to 1 | – | – | – | – | CN1CC[C@@H](n2c(=O)c(-c3c(F)cccc3F)cc3cnc(Nc4ccc(F)cn4)cc32)C1 [Compound 152, (R)-3-(2,6-difluorophenyl)-7-((5-fluoropyridin-2-yl)amino)-1-(1-methylpyrrolidin-3-yl)-1,6-naphthyridin-2(1H)-one] | < 1 | – | – | – | – | – | – | – | – | –
3.11 | < 0.1 | – | 1 to 10 | – | – | – | – | – | – | CN1CCN(CCn2c(=O)c(-c3c(F)cccc3F)cc3cnc(Nc4ccc(F)cn4)cc32)CC1 [Compound 134, 3-(2,6-difluorophenyl)-7-((5-fluoropyridin-2-yl)amino)-1-(2-(4-methylpiperazin-1-yl)ethyl)-1,6-naphthyridin-2(1H)-one] | < 1 | 80 | 44 | < 0.1 | < 0.1 | – | – | – | – | –
5.49 | < 0.1 | – | > 10 | – | – | – | – | – | – | O=c1c(-c2c(F)cccc2F)cc2cnc(Nc3ccc(F)cn3)cc2n1CCN1CCOCC1 [Compound 133, 3-(2,6-difluorophenyl)-7-((5-fluoropyridin-2-yl)amino)-1-(2-morpholinoethyl)-1,6-naphthyridin-2(1H)-one] | < 1 | – | – | < 0.1 | < 0.1 | – | – | – | – | –
